{"source": "PubChem BioAssay AID1963868", "about": "(Molecular Pharmacology Branch, DTP, NCI, 2024)", "tested_on": "KRAS PDC tumor spheroids (HUVEC+MSC), viability", "test": "Anticancer human tumor 254851-301-R-J1-PDC patient-derived colon carcinoma cell line growth inhibition [KRAS2]", "conditions": "for IC50: curve of first compound; for viability, T/C: stronger effect = lower value", "how_it_was_run": "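Combination screen of spheroid viability in tumor-cell co-cultures with endothelial (HUVEC) and mesenchymal stem cell stroma. Each agent was tested in half-log dilutions, topping at clinical Cmax or at 10 microM without a known Cmax.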", "key": {"[1]": {"conditions": "second compound 0.0316 µM, first compound 0.0316 µM"}, "[2]": {"conditions": "second compound 0.0316 µM, first compound 0.1 µM"}, "[3]": {"conditions": "second compound 0.1 µM, first compound 0.0316 µM"}, "[4]": {"conditions": "second compound 0.1 µM, first compound 0.1 µM"}, "[5]": {"conditions": "second compound 0.316 µM, first compound 0.0316 µM"}, "[6]": {"conditions": "second compound 0.316 µM, first compound 0.1 µM"}, "[7]": {"conditions": "second compound 1 µM, first compound 0.0316 µM"}, "[8]": {"conditions": "second compound 1 µM, first compound 0.1 µM"}, "[9]": {"conditions": "second compound 3.16 µM, first compound 0.0316 µM"}, "[10]": {"conditions": "second compound 3.16 µM, first compound 0.1 µM"}}, "data": [{"compound": "COc1cc2nccc(Oc3ccc(NC(=O)C4(C(=O)Nc5ccc(F)cc5)CC4)cc3)c2cc1OC", "note": "+ C=CC(=O)N1CCN(c2nc(OCC3CCCN3C)nc3c2CCN(c2cccc4cccc(C)c24)C3)CC1CC#N;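 also: spheroids exposed to compounds for seven days before readout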;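 as to viability, T/C: 100% = DMSO vehicle control luminescence of the spheroids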", "values": [{"measurement": "IC50", "setting": "second compound 0.0316 µM", "result": "> 10", "unit": "µM"}, {"measurement": "IC50", "setting": "second compound 0.1 µM", "result": 9.1, "unit": "µM"}, {"measurement": "IC50", "setting": "second compound 0.316 µM", "result": 9.15, "unit": "µM"}, {"measurement": "IC50", "setting": "second compound 1 µM", "result": 6.79, "unit": "µM"}, {"measurement": "IC50", "setting": "second compound 3.16 µM", "result": 0.839, "unit": "µM"}, {"measurement": "viability, T/C", "setting": "[1]", "result": 98.5, "unit": "%"}, {"measurement": "viability, T/C", "setting": "[2]", "result": 103, "unit": "%"}, {"measurement": "viability, T/C", "setting": "second compound 0.0316 µM, first compound 0.316 µM", "result": 96.2, "unit": "%"}, {"measurement": "viability, T/C", "setting": "second compound 0.0316 µM, first compound 1 µM", "result": 112, "unit": "%"}, {"measurement": "viability, T/C", "setting": "second compound 0.0316 µM, first compound 3.16 µM", "result": 100, "unit": "%"}, {"measurement": "viability, T/C", "setting": "second compound 0.0316 µM, first compound 10 µM", "result": 52.3, "unit": "%"}, {"measurement": "viability, T/C", "setting": "[3]", "result": 115, "unit": "%"}, {"measurement": "viability, T/C", "setting": "[4]", "result": 111, "unit": "%"}, {"measurement": "viability, T/C", "setting": "second compound 0.1 µM, first compound 0.316 µM", "result": 109, "unit": "%"}, {"measurement": "viability, T/C", "setting": "second compound 0.1 µM, first compound 1 µM", "result": 94.1, "unit": "%"}, {"measurement": "viability, T/C", "setting": "second compound 0.1 µM, first compound 3.16 µM", "result": 103, "unit": "%"}, {"measurement": "viability, T/C", "setting": "second compound 0.1 µM, first compound 10 µM", "result": 45, "unit": "%"}, {"measurement": "viability, T/C", "setting": "[5]", "result": 111, "unit": "%"}, {"measurement": "viability, T/C", "setting": "[6]", "result": 106, "unit": "%"}, {"measurement": "viability, T/C", "setting": "second compound 0.316 µM, first compound 0.316 µM", "result": 110, "unit": "%"}, {"measurement": "viability, T/C", "setting": "second compound 0.316 µM, first compound 1 µM", "result": 110, "unit": "%"}, {"measurement": "viability, T/C", "setting": "second compound 0.316 µM, first compound 3.16 µM", "result": 96, "unit": "%"}, {"measurement": "viability, T/C", "setting": "second compound 0.316 µM, first compound 10 µM", "result": 45.8, "unit": "%"}, {"measurement": "viability, T/C", "setting": "[7]", "result": 108, "unit": "%"}, {"measurement": "viability, T/C", "setting": "[8]", "result": 104, "unit": "%"}, {"measurement": "viability, T/C", "setting": "second compound 1 µM, first compound 0.316 µM", "result": 99.3, "unit": "%"}, {"measurement": "viability, T/C", "setting": "second compound 1 µM, first compound 1 µM", "result": 98.1, "unit": "%"}, {"measurement": "viability, T/C", "setting": "second compound 1 µM, first compound 3.16 µM", "result": 80.5, "unit": "%"}, {"measurement": "viability, T/C", "setting": "second compound 1 µM, first compound 10 µM", "result": 34.2, "unit": "%"}, {"measurement": "viability, T/C", "setting": "[9]", "result": 56.9, "unit": "%"}, {"measurement": "viability, T/C", "setting": "[10]", "result": 64.8, "unit": "%"}, {"measurement": "viability, T/C", "setting": "second compound 3.16 µM, first compound 0.316 µM", "result": 66.4, "unit": "%"}, {"measurement": "viability, T/C", "setting": "second compound 3.16 µM, first compound 1 µM", "result": 47.6, "unit": "%"}, {"measurement": "viability, T/C", "setting": "second compound 3.16 µM, first compound 3.16 µM", "result": 2.41, "unit": "%"}, {"measurement": "viability, T/C", "setting": "second compound 3.16 µM, first compound 10 µM", "result": 0.18, "unit": "%"}]}, {"compound": "Cn1ncnc1[C@H]1c2n[nH]c(=O)c3cc(F)cc(c23)N[C@@H]1c1ccc(F)cc1", "note": "+ C=CC(=O)N1CCN(c2nc(OCC3CCCN3C)nc3c2CCN(c2cccc4cccc(C)c24)C3)CC1CC#N", "values": [{"measurement": "IC50", "setting": "second compound 0.0316 µM", "result": "> 0.1", "unit": "µM"}, {"measurement": "IC50", "setting": "second compound 0.1 µM", "result": "> 0.1", "unit": "µM"}, {"measurement": "IC50", "setting": "second compound 0.316 µM", "result": "> 0.1", "unit": "µM"}, {"measurement": "IC50", "setting": "second compound 1 µM", "result": "> 0.1", "unit": "µM"}, {"measurement": "IC50", "setting": "second compound 3.16 µM", "result": "> 0.1", "unit": "µM"}, {"measurement": "viability, T/C", "setting": "second compound 0.0316 µM, first compound 0.000316 µM", "result": 116, "unit": "%"}, {"measurement": "viability, T/C", "setting": "second compound 0.0316 µM, first compound 0.001 µM", "result": 112, "unit": "%"}, {"measurement": "viability, T/C", "setting": "second compound 0.0316 µM, first compound 0.00316 µM", "result": 101, "unit": "%"}, {"measurement": "viability, T/C", "setting": "second compound 0.0316 µM, first compound 0.01 µM", "result": 97.4, "unit": "%"}, {"measurement": "viability, T/C", "setting": "[1]", "result": 101, "unit": "%"}, {"measurement": "viability, T/C", "setting": "[2]", "result": 90.9, "unit": "%"}, {"measurement": "viability, T/C", "setting": "second compound 0.1 µM, first compound 0.000316 µM", "result": 107, "unit": "%"}, {"measurement": "viability, T/C", "setting": "second compound 0.1 µM, first compound 0.001 µM", "result": 105, "unit": "%"}, {"measurement": "viability, T/C", "setting": "second compound 0.1 µM, first compound 0.00316 µM", "result": 98.5, "unit": "%"}, {"measurement": "viability, T/C", "setting": "second compound 0.1 µM, first compound 0.01 µM", "result": 100, "unit": "%"}, {"measurement": "viability, T/C", "setting": "[3]", "result": 103, "unit": "%"}, {"measurement": "viability, T/C", "setting": "[4]", "result": 100, "unit": "%"}, {"measurement": "viability, T/C", "setting": "second compound 0.316 µM, first compound 0.000316 µM", "result": 100, "unit": "%"}, {"measurement": "viability, T/C", "setting": "second compound 0.316 µM, first compound 0.001 µM", "result": 104, "unit": "%"}, {"measurement": "viability, T/C", "setting": "second compound 0.316 µM, first compound 0.00316 µM", "result": 103, "unit": "%"}, {"measurement": "viability, T/C", "setting": "second compound 0.316 µM, first compound 0.01 µM", "result": 94.8, "unit": "%"}, {"measurement": "viability, T/C", "setting": "[5]", "result": 96.1, "unit": "%"}, {"measurement": "viability, T/C", "setting": "[6]", "result": 93, "unit": "%"}, {"measurement": "viability, T/C", "setting": "second compound 1 µM, first compound 0.000316 µM", "result": 101, "unit": "%"}, {"measurement": "viability, T/C", "setting": "second compound 1 µM, first compound 0.001 µM", "result": 106, "unit": "%"}, {"measurement": "viability, T/C", "setting": "second compound 1 µM, first compound 0.00316 µM", "result": 94.6, "unit": "%"}, {"measurement": "viability, T/C", "setting": "second compound 1 µM, first compound 0.01 µM", "result": 88.9, "unit": "%"}, {"measurement": "viability, T/C", "setting": "[7]", "result": 95.1, "unit": "%"}, {"measurement": "viability, T/C", "setting": "[8]", "result": 99.8, "unit": "%"}, {"measurement": "viability, T/C", "setting": "second compound 3.16 µM, first compound 0.000316 µM", "result": 62.8, "unit": "%"}, {"measurement": "viability, T/C", "setting": "second compound 3.16 µM, first compound 0.001 µM", "result": 68.4, "unit": "%"}, {"measurement": "viability, T/C", "setting": "second compound 3.16 µM, first compound 0.00316 µM", "result": 61.5, "unit": "%"}, {"measurement": "viability, T/C", "setting": "second compound 3.16 µM, first compound 0.01 µM", "result": 47.8, "unit": "%"}, {"measurement": "viability, T/C", "setting": "[9]", "result": 50.7, "unit": "%"}, {"measurement": "viability, T/C", "setting": "[10]", "result": 62.9, "unit": "%"}]}]}
